In patent US20240228504A1, “SUBSTITUTED TRICYCLIC AMIDES, ANALOGUES THEREOF, AND METHODS USING SAME” (Arbutus Biopharma Corporation, priority 2020, published 2024) one finds EC50 data, which are given here for 28 compounds.

For one test, the system named is HBV rcDNA in HepDE19 cells. The test can be described thus: HepDE19 assay with bDNA quantitation of HBV rcDNA. In kind it is cell-based, hepatitis B virus. Conditions: HepDE19 assay, inhibition of rcDNA formation, bDNA quantitation; read-out: DE-19bDNA EC50.
A word on the EC50: it is the midpoint of the concentration-response curve. As for `CN(C(=O)c1cc2ccccc2[nH]1)C1COCc2[nH]c(=O)c3cc(F)ccc3c21` (single isomer, unassigned) [Compound 1, N-(8-Fluoro-6-oxo-1,4,5,6-tetrahydro-2H-pyrano[3,4-c]isoquinolin-1-yl)-N-methyl-1H-indole-2-carboxamide], the EC50 came out at 8600 nM. `CN(C(=O)c1cc2ccccc2[nH]1)C1COCc2[nH]c(=O)c3cc(F)ccc3c21` (single isomer, unassigned) [Compound 2, N-(8-Fluoro-6-oxo-1,4,5,6-tetrahydro-2H-pyrano[3,4-c]isoquinolin-1-yl)-N-methyl-1H-indole-2-carboxamide]: the EC50 was found to be 20 nM.

For the compound `CN(C(=O)C1Cc2cc(F)ccc2N1)C1COCc2[nH]c(=O)c3cc(F)c(F)cc3c21` (single isomer, unassigned) [Compound 5, N-(8,9-Difluoro-6-oxo-1,4,5,6-tetrahydro-2H-pyrano[3,4-c]isoquinolin-1-yl)-5-fluoro-N-methylindoline-2-carboxamide], the EC50 was 20 nM.

On to `CN(C(=O)C1Cc2cc(F)ccc2N1)C1COCc2[nH]c(=O)c3cc(F)c(F)cc3c21` (single isomer, unassigned) [Compound 6, N-(8,9-Difluoro-6-oxo-1,4,5,6-tetrahydro-2H-pyrano[3,4-c]isoquinolin-1-yl)-5-fluoro-N-methylindoline-2-carboxamide], for which the EC50 stood at 9600 nM. `CN(C(=O)C1Cc2cc(F)ccc2N1)C1COCc2[nH]c(=O)c3cc(F)c(F)cc3c21` (single isomer, unassigned) [Compound 7, N-(8,9-Difluoro-6-oxo-1,4,5,6-tetrahydro-2H-pyrano[3,4-c]isoquinolin-1-yl)-5-fluoro-N-methylindoline-2-carboxamide]: the EC50 worked out at 10 nM. In the case of `CN(C(=O)C1Cc2cc(F)ccc2N1)C1COCc2[nH]c(=O)c3cc(F)c(F)cc3c21` (single isomer, unassigned) [Compound 8, N-(8,9-Difluoro-6-oxo-1,4,5,6-tetrahydro-2H-pyrano[3,4-c]isoquinolin-1-yl)-5-fluoro-N-methylindoline-2-carboxamide], the concentration for a half-maximal effect (EC50) was found to be 1400 nM. Consider `CN(C(=O)c1cc2c(F)cccn2c1)C1COCc2[nH]c(=O)c3cc(F)c(F)cc3c21` (single isomer, unassigned) [Compound 9, N-(8,9-Difluoro-6-oxo-1,4,5,6-tetrahydro-2H-pyrano[3,4-c]isoquinolin-1-yl)-8-fluoro-N-methylindolizine-2-carboxamide], for which the EC50 is 3300 nM.

For `CN(C(=O)c1cc2c(F)cccn2c1)C1COCc2[nH]c(=O)c3cc(F)c(F)cc3c21` (single isomer, unassigned) [Compound 10, N-(8,9-Difluoro-6-oxo-1,4,5,6-tetrahydro-2H-pyrano[3,4-c]isoquinolin-1-yl)-8-fluoro-N-methylindolizine-2-carboxamide], the EC50 came to 10 nM. In the case of `CN(C(=O)c1cc2ccccn2c1)C1COCc2[nH]c(=O)c3cc(F)c(F)cc3c21` (single isomer, unassigned) [Compound 11, N-(8,9-Difluoro-6-oxo-1,4,5,6-tetrahydro-2H-pyrano[3,4-c]isoquinolin-1-yl)-N-methylindolizine-2-carboxamide], the EC50 came out at 5300 nM. For the compound `CN(C(=O)c1cc2ccccn2c1)C1COCc2[nH]c(=O)c3cc(F)c(F)cc3c21` (single isomer, unassigned) [Compound 12, N-(8,9-Difluoro-6-oxo-1,4,5,6-tetrahydro-2H-pyrano[3,4-c]isoquinolin-1-yl)-N-methylindolizine-2-carboxamide], the EC50 was determined as 10 nM. For the compound `CN(C(=O)c1cc2c(Cl)cccn2c1)C1COCc2[nH]c(=O)c3cc(F)c(F)cc3c21` (single isomer, unassigned) [Compound 17, 8-Chloro-N-(8,9-difluoro-6-oxo-1,4,5,6-tetrahydro-2H-pyrano[3,4-c]isoquinolin-1-yl)-N-methylindolizine-2-carboxamide], the EC50 was 1900 nM. `CN(C(=O)c1cc2c(Cl)cccn2c1)C1COCc2[nH]c(=O)c3cc(F)c(F)cc3c21` (single isomer, unassigned) [Compound 18, 8-Chloro-N-(8,9-difluoro-6-oxo-1,4,5,6-tetrahydro-2H-pyrano[3,4-c]isoquinolin-1-yl)-N-methylindolizine-2-carboxamide]: the EC50 worked out at 10 nM. Take `CN(C(=O)c1cc2c(F)cccc2[nH]1)C1COCc2[nH]c(=O)c3cc(F)ccc3c21` (single isomer, unassigned) [Compound 19, 4-Fluoro-N-(8-fluoro-6-oxo-1,4,5,6-tetrahydro-2H-pyrano[3,4-c]isoquinolin-1-yl)-N-methyl-1H-indole-2-carboxamide]: the EC50 is 1500 nM. In the case of `CN(C(=O)c1cc2c(F)cccc2[nH]1)C1COCc2[nH]c(=O)c3cc(F)ccc3c21` (single isomer, unassigned) [Compound 20, 4-Fluoro-N-(8-fluoro-6-oxo-1,4,5,6-tetrahydro-2H-pyrano[3,4-c]isoquinolin-1-yl)-N-methyl-1H-indole-2-carboxamide], the EC50 amounted to 20 nM. As to `CN(C(=O)c1cc2ccccc2[nH]1)C1COCc2[nH]c(=O)c3cc(F)c(F)cc3c21` (single isomer, unassigned) [Compound 21, N-(8,9-Difluoro-6-oxo-1,4,5,6-tetrahydro-2H-pyrano[3,4-c]isoquinolin-1-yl)-N-methyl-1H-indole-2-carboxamide], the EC50 was 3300 nM. For the compound `CN(C(=O)c1cc2ccccc2[nH]1)C1COCc2[nH]c(=O)c3cc(F)c(F)cc3c21` (single isomer, unassigned) [Compound 22, N-(8,9-Difluoro-6-oxo-1,4,5,6-tetrahydro-2H-pyrano[3,4-c]isoquinolin-1-yl)-N-methyl-1H-indole-2-carboxamide], the EC50 stood at 10 nM. As to `CN(C(=O)c1cc2c(F)cccc2[nH]1)C1COCc2[nH]c(=O)c3cc(F)c(F)cc3c21` (single isomer, unassigned) [Compound 23, N-(8,9-Difluoro-6-oxo-1,4,5,6-tetrahydro-2H-pyrano[3,4-c]isoquinolin-1-yl)-4-fluoro-N-methyl-1H-indole-2-carboxamide], the EC50 amounted to 4500 nM.

Regarding `CN(C(=O)c1cc2c(F)cccc2[nH]1)C1COCc2[nH]c(=O)c3cc(F)c(F)cc3c21` (single isomer, unassigned) [Compound 24, N-(8,9-Difluoro-6-oxo-1,4,5,6-tetrahydro-2H-pyrano[3,4-c]isoquinolin-1-yl)-4-fluoro-N-methyl-1H-indole-2-carboxamide], the half-maximal effective concentration (EC50) was 4 nM. Regarding `CN(C(=O)c1cc2ccc(F)cc2[nH]1)C1COCc2[nH]c(=O)c3cc(F)c(F)cc3c21` (single isomer, unassigned) [Compound 25, N-(8,9-Difluoro-6-oxo-1,4,5,6-tetrahydro-2H-pyrano[3,4-c]isoquinolin-1-yl)-6-fluoro-N-methyl-1H-indole-2-carboxamide], the EC50 was 820 nM. Consider `CN(C(=O)c1cc2ccc(F)cc2[nH]1)C1COCc2[nH]c(=O)c3cc(F)c(F)cc3c21` (single isomer, unassigned) [Compound 26, N-(8,9-Difluoro-6-oxo-1,4,5,6-tetrahydro-2H-pyrano[3,4-c]isoquinolin-1-yl)-6-fluoro-N-methyl-1H-indole-2-carboxamide], for which the EC50 was 10 nM. As to `CN(C(=O)c1cc2cc(F)ccc2[nH]1)C1COCc2[nH]c(=O)c3cc(F)c(F)cc3c21` (single isomer, unassigned) [Compound 27, N-(8,9-Difluoro-6-oxo-1,4,5,6-tetrahydro-2H-pyrano[3,4-c]isoquinolin-1-yl)-5-fluoro-N-methyl-1H-indole-2-carboxamide], the EC50 turned out to be 370 nM. Turning to `CN(C(=O)c1cc2cc(F)ccc2[nH]1)C1COCc2[nH]c(=O)c3cc(F)c(F)cc3c21` (single isomer, unassigned) [Compound 28, N-(8,9-Difluoro-6-oxo-1,4,5,6-tetrahydro-2H-pyrano[3,4-c]isoquinolin-1-yl)-5-fluoro-N-methyl-1H-indole-2-carboxamide], the EC50 is 4 nM.

The test is the same for the next values; noted with them: Hepatitis B virus, HepDE19, HepDE19 assay, inhibition of rcDNA formation, bDNA quantitation; read-out: DE-19bDNA EC50.
For the compound `CN(C(=O)c1ccc(C(F)(F)F)c(F)c1)C1COCc2[nH]c(=O)c3ccccc3c21` (racemic) [Compound 132, 3-Fluoro-N-methyl-N-(6-oxo-1,4,5,6-tetrahydro-2H-pyrano[3,4-c]isoquinolin-1-yl)-4-(trifluoromethyl)benzamide], the EC50 amounted to 60 nM. With `CN(C(=O)c1ccc(C(F)(F)F)c(F)c1)C1COCc2[nH]c(=O)c3cscc3c21` (racemic) [Compound 133, 3-Fluoro-N-methyl-N-(4-oxo-4,5,8,9-tetrahydro-6H-pyrano[3,4-b]thieno[3,4-d]pyridin-9-yl)-4-(trifluoromethyl)benzamide], the EC50 came out at 60 nM. Consider `CN(C(=O)c1ccc(C(F)(F)F)c(F)c1)C1COCc2[nH]c(=O)c3cc(C#N)ccc3c21` (racemic) [Compound 134, N-(8-Cyano-6-oxo-1,4,5,6-tetrahydro-2H-pyrano[3,4-c]isoquinolin-1-yl)-3-fluoro-N-methyl-4-(trifluoromethyl)benzamide], for which the EC50 was 2800 nM. On to `CN(C(=O)c1cc2sc(Cl)cc2[nH]1)C1COCc2[nH]c(=O)c3cc(F)ccc3c21` (racemic) [Compound 452, 2-Chloro-N-(8-fluoro-6-oxo-1,4,5,6-tetrahydro-2H-pyrano[3,4-c]isoquinolin-1-yl)-N-methyl-4H-thieno[3,2-b]pyrrole-5-carboxamide], for which the 50% effective concentration (EC50) was determined as 80 nM. The same measure, in the same setting: with `Cc1cc(F)cc2[nH]c(C(=O)N(C)C3COCc4[nH]c(=O)c5cc(F)ccc5c43)cc12` (racemic) [Compound 455, 6-Fluoro-N-(8-fluoro-6-oxo-1,4,5,6-tetrahydro-2H-pyrano[3,4-c]isoquinolin-1-yl)-N,4-dimethyl-1H-indole-2-carboxamide] the figure was 20 nM; with `CN(C(=O)[C@@H]1Cc2ccccc2N1)C1COCc2[nH]c(=O)c3cc(F)ccc3c21` (single isomer, unassigned) [Compound 4], 130 nM.
